According to PubChem BioAssay (NCI):
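Dose response: 5 concentrations. Exposure: 48 h. Format: 96-well plates. Endpoint: linear interpolation; highest concentration if not reached. TGI: total growth inhibition.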 Where a SMILES comes first, the peptide text is derived from it. The star is where a group is joined. Cbz = O=C(OCc1ccccc1)*

How the values were obtained:
Assay in all cases: growth of human tumour cells (NCI), 48 h
OVCAR-3 ovarian = system: OVCAR-3 ovarian
KM12 colon = system: KM12 colon
NCI-H23 lung = system: NCI-H23 lung
CAKI-1 renal = system: CAKI-1 renal
LOX IMVI melanoma = system: LOX IMVI melanoma
M14 melanoma = system: M14 melanoma
NCI/ADR-RES ovarian = system: NCI/ADR-RES ovarian
MDA-MB-435 = system: MDA-MB-435
HT29 colon = system: HT29 colon
BT-549 breast = system: BT-549 breast
SK-MEL-28 melanoma = system: SK-MEL-28 melanoma
TK-10 renal = system: TK-10 renal
SF-539 CNS = system: SF-539 CNS
MDA-N = system: MDA-N
CCRF-CEM leukemia = system: CCRF-CEM leukemia

SMILES	TGI (OVCAR-3 ovarian) [µM]	TGI (KM12 colon) [µM]	TGI (NCI-H23 lung) [µM]	TGI (CAKI-1 renal) [µM]	TGI (LOX IMVI melanoma) [µM]	TGI (M14 melanoma) [µM]	TGI (NCI/ADR-RES ovarian) [µM]	TGI (MDA-MB-435) [µM]	TGI (HT29 colon) [µM]	TGI (BT-549 breast) [µM]	TGI (SK-MEL-28 melanoma) [µM]	TGI (TK-10 renal) [µM]	TGI (SF-539 CNS) [µM]	TGI (MDA-N) [µM]	TGI (CCRF-CEM leukemia) [µM]
Clc1ccc(C2C3COc4ccccc4C3=NN2c2ccccc2)cc1 (stereo unspecified)	> 100	> 100	> 100	> 100	> 48.7	> 100	> 100	> 100	> 100	> 100	> 100	> 100	> 100	> 67.4	> 37.7
O=C(/C=C/c1cc2ccccc2o1)N1CCN(c2ccccn2)CC1	> 100	> 100	> 100	> 100	> 100	> 100	> 100	> 100	> 100	> 100	> 100	> 100	> 100	> 100	> 100
Cc1nn(-c2ccccc2)c2c1C(c1ccc(Cl)cc1)NC(=S)N2 (stereo unspecified)	> 100	64.8	44.5	> 100	31.1	> 100	68.5	47.4	> 100	59.7	–	43.6	37.4	93.6	72.8
COC(=O)C(Cc1c[nH]c2ccccc12)NP(=O)(O)OCC1OC(n2cc(I)c(=O)[nH]c2=O)CC1O (stereo unspecified)	> 100	> 100	> 100	> 100	> 100	> 100	> 100	> 100	> 100	> 100	> 100	> 100	> 100	> 100	> 100
Nc1nc(SC/C=C/c2ccccc2)c2[nH]cnc2n1	> 100	> 100	> 100	> 100	> 100	> 100	> 100	> 100	> 100	> 100	> 100	> 100	> 100	> 100	> 100
C[C@H](CCC(=O)O)[C@H]1CC[C@H]2[C@@H]3CC[C@@H]4C[C@H](O)CC[C@]4(C)[C@H]3C[C@H](O)[C@]12C	52.1	> 100	> 100	> 100	> 100	> 100	> 100	> 100	> 100	> 100	> 100	> 100	99	> 100	63.8
CC1OC(OC2C(O)COC(OC3C(C)OC(OC4C(OC(=O)[C@]56CCC(C)(C)C[C@@H]5C5=CCC7[C@@]8(C)C[C@H](O)[C@H](OC9OC(CO)C(O)C(O)C9O)[C@@](C)(CO)[C@@H]8CC[C@@]7(C)[C@]5(C)CC6)OCC(O)C4O)C(O)C3OC3OCC(O)(CO)C3O)C2O)C(O)C(O)C1O (stereo partly specified)	40.8	52.4	27.1	13.8	43.2	10.4	41.7	47.3	37.4	38	13.6	32.1	44.8	32.5	44.7
CN=C(N=Nc1c(O)[nH]c2ccccc12)SCC(=O)c1ccc(Br)cc1	28.2	> 39.5	51.1	> 65.5	> 47.7	39.3	27	> 42.3	> 43.5	> 100	> 78.1	37.7	23.8	> 100	30.8
O=[N+]([O-])c1ccc2c(c1)C1=C(CO2)Cc2ccccc2O1	41.6	39.3	59.2	31.4	30.2	37.4	> 100	80.5	88	61.9	–	57	52.2	33.1	> 100
Fc1cc(-c2cc(-c3ccccc3)no2)c(Cl)cc1Cl	> 40.1	> 58.4	> 34.2	> 100	> 21.2	> 54.7	> 100	> 35.9	> 46.7	39.8	> 56.4	> 51.7	> 17.2	> 68.9	> 49.6
CCCCCCc1cc2cc(C(=O)Nc3ccccc3)c(=N)oc2cc1O	5.1	8.48	10.6	> 100	12.5	> 29.4	> 100	14.1	> 32.1	> 100	> 100	> 100	> 48.6	> 34.3	> 37.9
C/C=C(/C)C(=O)O[C@@H]1CCN2CC[C@H](COC(=O)/C(=C/C)CO)C12 (stereo partly specified)	> 100	> 100	> 100	> 100	> 100	36.3	> 100	> 100	> 31.6	> 100	> 100	> 100	> 100	> 100	> 100
O=C(O)CCC(NC(=O)OCc1ccccc1)C(=O)NC(Cc1cnc[nH]1)C(=O)O (stereo not drawn) (Cbz-Glu-His-OH; configuration not given here)	> 100	> 100	> 100	> 100	> 100	> 100	> 100	> 100	> 100	> 100	> 100	> 100	> 100	> 100	> 100
CCOC1OC(=O)c2cc3ccc4c(c3c(-c3ccc5c(c3)OCO5)c21)OCO4 (stereo unspecified)	3.77	> 100	> 55.3	> 100	> 100	79.3	> 74.6	> 28	> 100	97.2	> 100	> 77.9	20.4	5.2	> 100
CCOC(=O)CC[C@H](NC(=O)[C@H](N)Cc1ccc(N(CCCl)CCCl)cc1)C(=O)OCC	30.2	31.8	12.9	> 37.1	41.6	21.8	30.9	> 53.1	> 78	> 65.3	> 54.3	> 100	30.8	> 50.8	> 49.6
O=C1/C(=C/c2ccccc2S)N=C(c2ccccc2)N1c1nc2c(Cl)cc(Cl)cc2s1	40.2	88.1	–	> 100	50.4	66.2	84.9	48.2	40.1	> 100	> 100	> 100	40.8	36.9	13.7
COC(=O)c1ccccc1/C=C1\Cc2ccc(C)c(C)c2C1=O	> 100	> 100	> 100	> 100	> 100	> 100	> 100	> 100	> 100	> 100	> 100	> 100	> 100	> 100	> 100
CCC(C)OC(=O)/C(Br)=C1/OC(=O)c2ccccc2-c2ccccc21 (stereo unspecified)	> 100	61	> 100	> 100	68.2	> 100	71.4	> 100	84.5	37.1	86.7	43.2	52.2	> 100	52
O=C(O)C(NCc1ccccc1)C(NCc1ccccc1)C(=O)O (stereo unspecified)	> 100	> 100	> 100	> 100	> 100	> 100	> 100	> 100	> 100	> 100	> 100	> 100	> 100	> 100	> 100
CCOC(=O)C12OC(CCC1=O)C(C(=O)OC)=C2C(=O)OC (stereo unspecified)	> 10	> 10	> 10	> 10	> 10	> 10	> 10	> 10	> 10	> 10	> 10	> 10	> 10	> 10	> 10
CN(C)CCCN1CCC2(CCC(C(C)(C)C)CC2)CC1	10.9	6.18	21.7	7.55	3.22	3.46	19.5	1.19	1.7	24.5	3.36	3.34	3.89	2.44	4.82
O=C1CCCC1CN1CCCC1 (stereo unspecified)	28.9	35	31.3	0.773	24.4	6.74	37.9	26.3	> 59.7	3.09	27.7	25.1	36.7	26.8	1.16
COc1cc2c(C)cc(O)cc2c2cc(O)c(C)cc12	22.3	20.2	21.5	22.4	9.22	6.67	30.4	19.2	45.8	23	–	23.8	19.1	20	18.2
